Assay results published in patent publication US12018021B2 (UCB Biopharma SRL, priority 2018, dated 2024).
pIC50: −log10 of the molar value.

These molecules were tested against IgE-Tb / FcεRIα-Y131A-AF488 (Homo sapiens, UniProt P01854) (assay: IgE-Tb / FcεRIα-Y131A-AF488 FRET assay (protocol for examples 1 to 233)). Conditions: examples 1 to 233: 5 nM IgE-Tb, 25 nM FcεRIα-Y131A-AF488, incubated 2 hours at room temperature; read-out: Y131A FRET IC50 range.
Type: binding
Protocol: For examples 1 to 233, the assay was conducted according to the following: Each assay reaction was conducted in a volume of 25 μl in a 384-well half-volume plate. 10 point compound serial dilutions (3-fold) were generated in DMSO at a concentration of ×50 that of the final assay concentration (FAC). Compound solutions were then prepared by IgE-Tb diluting 10-fold in assay buffer. For the assay, 5 μl of diluted compound was added to 10 μl of, followed by addition of 10 μl FcεRIα-Y131A-AF488. FRET reagents FACs were 5 nM IgE-Tb, 25 nM FcεRIα-Y131A-AF488. Usually the top FAC of compound in the assay was 10 μM. The final DMSO concentration was 2%. The minimum signal (MIN) was measured by adding 5l unlabelled FcεRIα at 1 μM (FAC=200 nM) to the FRET reagents. The maximum FRET signal (MAX) was measured in wells containing FRET reagents but no compound. The assay was incubated for 2 hours at room temperature, protected from light and evaporation, and with gentle agitation.
Measurement of FRET for each well was carried out by exciting at 330 nm and measuring emission at 495/520 nm using an Envision plate reader (Perkin Elmer). FRET ratio was calculated as follows: Emission at 520/Emission at 495×1000.
The FRET ratio was used for the data analysis.
Z′ was calculated as follows (σ=standard deviation and μ=mean): 1−((3×σMAX)+(3×σMIN))/(μMAX−μMIN)
Z′ above 0.5 was considered a good assay.
Background signal (MIN) was subtracted from all wells. Using the background subtracted values, the percent inhibition by compound in each test-well was calculated as follows: 100−Test-well FRET ratio/MAX FRET ratio×100.
Percent inhibition was plotted against compound concentration. IC50 values for each compound were determined using four parameter logistic fit model using the XLFIT5 software package.

Sequence of IgE-Tb / FcεRIα-Y131A-AF488 (P01854 1-427 limits assumed, stated change not applied): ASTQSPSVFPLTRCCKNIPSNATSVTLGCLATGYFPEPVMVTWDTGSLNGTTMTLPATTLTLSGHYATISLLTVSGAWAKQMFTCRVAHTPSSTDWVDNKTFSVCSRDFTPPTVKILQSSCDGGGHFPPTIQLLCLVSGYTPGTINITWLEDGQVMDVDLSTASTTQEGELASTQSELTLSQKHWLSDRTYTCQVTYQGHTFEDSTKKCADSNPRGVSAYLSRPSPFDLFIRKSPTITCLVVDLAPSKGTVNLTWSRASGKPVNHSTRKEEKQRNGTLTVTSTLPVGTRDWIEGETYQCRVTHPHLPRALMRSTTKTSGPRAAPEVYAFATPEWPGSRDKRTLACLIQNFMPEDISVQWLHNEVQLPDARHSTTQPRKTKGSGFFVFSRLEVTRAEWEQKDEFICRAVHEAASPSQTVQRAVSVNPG

SMILES | pIC50
CS(=O)(=O)NC1CCc2sc(NC(=O)C3CC3)c(C(=O)NCC3CC3)c2C1 (stereo not shown) [Example 207, 2-(Cyclopropanecarbonylamino)-N-(cyclopropylmethyl)-5-(methanesulfonamido)-4,5,6,7-tetrahydrobenzothiophene-3-carboxamide] | > 6.00
Cc1ccc(Nc2c(NC3CCc4sc(NC(=O)C5CC5)c(C(=O)NCC5CC5)c4C3)c(=O)c2=O)cc1 (stereo not shown) [Example 137, 2-(Cyclopropanecarbonylamino)-N-(cyclopropylmethyl)-5-[[2-(4-methylanilino)-3,4-dioxo-cyclobuten-1-yl]amino]-4,5,6,7-tetrahydrobenzothiophene-3-carboxamide] | > 6.00
Cc1cc(-n2cnnc2N[C@H]2CCc3sc(NC(=O)C4CC4)c(C(=O)NCC4CC4)c3C2)n(C)n1 [Example 107, (5S)-2-(Cyclopropanecarbonylamino)-N-(cyclopropylmethyl)-5-[[4-(2,5-dimethylpyrazol-3-yl)-1,2,4-triazol-3-yl]amino]-4,5,6,7-tetrahydrobenzothiophene-3-carboxamide] | 5.00 to 6.00
CCCNS(=O)(=O)c1c(NC(=O)C2CC2)sc2c1CCCC2 [Example 16, N-[3-(Propylsulfamoyl)-4,5,6,7-tetrahydrobenzothiophen-2-yl]cyclopropanecarboxamide] | > 6.00
CCc1c(N[C@@H]2CCc3sc(NC(=O)C4CC4)c(C(=O)NCC4CC4)c3C2)c(=O)c1=O (single isomer, unassigned) [Example 189] | > 6.00
CCNc1nnnn1C1CCc2sc(NC(=O)C3CC3)c(C(=O)NCC3CC3)c2C1 (stereo not shown) [Example 160, 2-(Cyclopropanecarbonylamino)-N-(cyclopropylmethyl)-5-[5-(ethylamino)tetrazol-1-yl]-4,5,6,7-tetrahydrobenzothiophene-3-carboxamide] | > 6.00
Cn1cc(-n2cnnc2N[C@H]2CCc3sc(NC(=O)C4CC4)c(C(=O)NCC4CC4)c3C2)cn1 [Example 163, (5S)-2-(Cyclopropanecarbonylamino)-N-(cyclopropylmethyl)-5-[[4-(1-methylpyrazol-4-yl)-1,2,4-triazol-3-yl]amino]-4,5,6,7-tetrahydrobenzothiophene-3-carboxamide] | 5.00 to 6.00
Cc1ncccc1Nc1nccn1[C@H]1CCc2sc(NC(=O)C3CC3)c(C(=O)NCC3CC3)c2C1 [Example 150, (5S)-2-(Cyclopropanecarbonylamino)-N-(cyclopropylmethyl)-5-[2-[(2-methyl-3-pyridyl)amino]imidazol-1-yl]-4,5,6,7-tetrahydrobenzothiophene-3-carboxamide] | > 6.00
Cc1cc(Nc2nncn2C2CCc3sc(NC(=O)C4CC4)c(C(=O)NC4CC(F)C4)c3C2)n(C)n1 (stereo not shown) [Example 193, 2-(cyclopropanecarbonylamino)-5-[3-[(2,5-dimethylpyrazol-3-yl)amino]-1,2,4-triazol-4-yl]-N-(3-fluorocyclobutyl)-4,5,6,7-tetrahydrobenzothiophene-3-carboxamide] | > 6.00
O=C(NCC1CC1)c1c(NC(=O)C2CC2)sc2c1CC(Nc1nnco1)CC2 (stereo not shown) [Example 192, 2-(Cyclopropanecarbonylamino)-N-(cyclopropylmethyl)-5-(1,3,4-oxadiazol-2-ylamino)-4,5,6,7-tetrahydrobenzothiophene-3-carboxamide] | > 6.00
Cn1nc(C(F)(F)F)cc1Nc1nccn1[C@H]1CCc2sc(NC(=O)C3CC3)c(C(=O)NCC3CC3)c2C1 [Example 232, (5S)-2-(Cyclopropanecarbonylamino)-N-(cyclopropylmethyl)-5-[2-[[2-methyl-5-(trifluoromethyl)pyrazol-3-yl]amino]imidazol-1-yl]-4,5,6,7-tetrahydrobenzothiophene-3-carboxamide] | > 6.00
O=C(Nc1sc2c(c1C(=O)N1CCC3(CC3)C1)CC(n1cnnc1Nc1cccnc1)CC2)C1CC1 (single isomer, unassigned) [Example 128] | > 6.00
CCNC1=NS(=O)(=O)N=C1NC1CCc2sc(NC(=O)C3CC3)c(C(=O)NCC3CC3)c2C1 (stereo not shown) [Example 134, 2-(Cyclopropanecarbonylamino)-N-(cyclopropylmethyl)-5-[[4-(ethylamino)-1,1-dioxo-1,2,5-thiadiazol-3-yl]amino]-4,5,6,7-tetrahydrobenzothiophene-3-carboxamide] | > 6.00
CC(C)(C)CNc1nncn1C1CCc2sc(NC(=O)C3CC3)c(C(=O)NCC3CC3)c2C1 (stereo in doubt) [Example 105, (5S)-2-(Cyclopropanecarbonylamino)-N-(cyclopropylmethyl)-5-[3-(2,2-dimethylpropylamino)-1,2,4-triazol-4-yl]-4,5,6,7-tetrahydrobenzothiophene-3-carboxamide] | > 6.00
O=C(NCC1CC1)c1c(NC(=O)C2CC2)sc2c1CC(Nc1nc(=O)cc[nH]1)CC2 (stereo not shown) [Example 203, 2-(Cyclopropanecarbonylamino)-N-(cyclopropylmethyl)-5-[(4-oxo-1H-pyrimidin-2-yl)amino]-4,5,6,7-tetrahydrobenzothiophene-3-carboxamide] | > 6.00
CCNc1nnc(CO)n1C1CCc2sc(NC(=O)C3CC3)c(C(=O)NCC3CC3)c2C1 (stereo not shown) [Example 184, 2-(Cyclopropanecarbonylamino)-N-(cyclopropylmethyl)-5-[3-(ethylamino)-5-(hydroxymethyl)-1,2,4-triazol-4-yl]-4,5,6,7-tetrahydrobenzothiophene-3-carboxamide] | > 6.00
CCCC[S+]([O-])c1c(NC(=O)C2CC2)sc2c1CCCC2 (stereo not shown) [Example 29, N-(3-Butylsulfinyl-4,5,6,7-tetrahydrobenzothiophen-2-yl)cyclopropanecarboxamide] | 5.00 to 6.00
CCNC(=O)NC1CCc2sc(NC(=O)C3CC3)c(C(=O)NCC3CC3)c2C1 (stereo not shown) [Example 157, 2-(Cyclopropanecarbonylamino)-N-(cyclopropylmethyl)-5-(ethylcarbamoylamino)-4,5,6,7-tetrahydrobenzothiophene-3-carboxamide] | 5.00 to 6.00
C[C@H]1CCc2sc(NC(=O)C3CC3)c(C(=O)NCC3CC3)c21 (single isomer, unassigned) [Example 14] | 4.30 to 5.00
Cc1ccc(NCC2(O)CCc3sc(NC(=O)C4CC4)c(C(=O)NCC4CC4)c3C2)cc1 (stereo not shown) [Example 60, 2-(Cyclopropanecarbonylamino)-N-(cyclopropylmethyl)-5-hydroxy-5-[(4-methylanilino)methyl]-6,7-dihydro-4H-benzothiophene-3-carboxamide] | 5.00 to 6.00
O=C(NCC1CC1)c1c(NC(=O)C2CC2)sc2c1C[C@@H](n1cnnc1Nc1cccnc1)CC2 [Example 124, (5S)-2-(Cyclopropanecarbonylamino)-N-(cyclopropylmethyl)-5-[3-(3-pyridylamino)-1,2,4-triazol-4-yl]-4,5,6,7-tetrahydrobenzothiophene-3-carboxamide] | > 6.00
O=C(Nc1sc2c(c1C(=O)N1CCCCC1)CCCC2)C1CC1 [Example 78, N-[3-(Piperidine-1-carbonyl)-4,5,6,7-tetrahydrobenzothiophen-2-yl]cyclopropanecarboxamide] | 5.00 to 6.00
CC1CCc2sc(NC(=O)C3CC3)c(C(=O)NCC3CC3)c2C1C (stereo not shown) [Example 89, 2-(Cyclopropanecarbonylamino)-N-(cyclopropylmethyl)-4,5-dimethyl-4,5,6,7-tetrahydrobenzothiophene-3-carboxamide] | 5.00 to 6.00
O=C(Nc1sc2c(c1C(=O)N1CCC3(CC3)C1)CC(n1cnnc1Nc1cccnc1)CC2)C1CC1 (single isomer, unassigned) [Example 129] | 5.00 to 6.00
O=C(NCC1CC1)c1c(NC(=O)C2CC2)sc2c1C[C@@H](C(F)(F)F)CC2 [Example 67, (5S)-2-(Cyclopropanecarbonylamino)-N-(cyclopropylmethyl)-5-(trifluoromethyl)-4,5,6,7-tetrahydrobenzothiophene-3-carboxamide] | > 6.00
CC1(C)CCc2sc(NC(=O)C3CC3)c(C(=O)NCC3CC3)c2C1 [Example 84, 2-(Cyclopropanecarbonylamino)-N-(cyclopropylmethyl)-5,5-dimethyl-6,7-dihydro-4H-benzothiophene-3-carboxamide] | 5.00 to 6.00
CS(=O)(=O)N1CCc2sc(NC(=O)C3CC3)c(C(=O)NCC3CC3)c2C1 [Example 4, 2-(Cyclopropanecarbonylamino)-N-(cyclopropylmethyl)-5-methylsulfonyl-6,7-dihydro-4H-thieno[3,2-c]pyridine-3-carboxamide] | 4.30 to 5.00
Cc1ccc(OC(=O)NC2CCc3sc(NC(=O)C4CC4)c(C(=O)NCC4CC4)c3C2)cc1 (stereo not shown) [Example 181, p-Tolyl N-[2-(cyclopropanecarbonylamino)-3-(cyclopropylmethylcarbamoyl)-4,5,6,7-tetrahydrobenzothiophen-5-yl]carbamate] | > 6.00
